According to paper PMC4207771, “Identification and Characterization of Novel Renal Sensory Receptors” (PLoS ONE, 2014):
Where two headings read alike, the source gives them in different places.

Key:
Olfr545 = experiment: dual-luciferase (cAMP/CREB reporter) ligand screen, Olfr545 in HEK293T cells; format: cell-based, mouse; set-up: key to Olfr545 response in dual-luciferase assay: ‘+’ or ‘–‘ in each column indicates if the olfactory receptor responded or had no effect to that specific chemical; -: ‘+’ or ‘–‘ in each column indicates if the olfactory receptor responded or had no effect to that specific chemical; conditions: chemicals tested individually, screened at 500uM (* also at 100uM)
Olfr691 = biological target: T1, Olfr691 (Mus musculus, UniProt Q8VGW5); experiment: dual-luciferase (cAMP/CREB reporter) ligand screen, Olfr691 in HEK293T cells; format: cell-based; conditions: for Olfr691 response in dual-luciferase assay: chemicals tested individually, screened at 500uM (* also at 100uM); for Relative response (% of 4-pentenoate response) at 500 µM: HEK-293T, 4 h, 0.5 mM ligand, normalized to the response of Olfr691 to the strongest ligand
T1 construct: Lucy (N); expressed in transfected cells; host or cells: HEK293T, co-transfected with RTP1S
T1 sequence (Q8VGW5 1-322): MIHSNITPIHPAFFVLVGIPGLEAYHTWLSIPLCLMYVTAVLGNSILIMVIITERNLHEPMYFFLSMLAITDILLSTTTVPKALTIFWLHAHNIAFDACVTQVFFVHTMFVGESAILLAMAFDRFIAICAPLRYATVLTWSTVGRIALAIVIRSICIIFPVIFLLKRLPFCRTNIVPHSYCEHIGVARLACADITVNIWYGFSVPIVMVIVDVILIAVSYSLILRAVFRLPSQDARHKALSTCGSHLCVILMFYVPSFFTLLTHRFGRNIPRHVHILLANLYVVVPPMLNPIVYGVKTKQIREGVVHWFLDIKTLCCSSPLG

Olfr99 = experiment: dual-luciferase (cAMP/CREB reporter) ligand screen, Olfr99 in HEK293T cells; format: cell-based, mouse; set-up: key: ‘+’ or ‘–‘ in each column indicates if the olfactory receptor responded or had no effect to that specific chemical; -: ‘+’ or ‘–‘ in each column indicates if the olfactory receptor responded or had no effect to that specific chemical; conditions: chemicals tested individually, screened at 500uM (* also at 100uM)
Olfr31 = biological target: T2, Olfr31 (Mus musculus, UniProt Q3KPA7); experiment: dual-luciferase (cAMP/CREB reporter) ligand screen, Olfr31 in HEK293T cells; format: cell-based; conditions: chemicals tested individually, screened at 500uM (* also at 100uM)
T2 construct: expressed in transfected cells; host or cells: HEK293T, co-transfected with RTP1S
T2 sequence (Q3KPA7 1-317): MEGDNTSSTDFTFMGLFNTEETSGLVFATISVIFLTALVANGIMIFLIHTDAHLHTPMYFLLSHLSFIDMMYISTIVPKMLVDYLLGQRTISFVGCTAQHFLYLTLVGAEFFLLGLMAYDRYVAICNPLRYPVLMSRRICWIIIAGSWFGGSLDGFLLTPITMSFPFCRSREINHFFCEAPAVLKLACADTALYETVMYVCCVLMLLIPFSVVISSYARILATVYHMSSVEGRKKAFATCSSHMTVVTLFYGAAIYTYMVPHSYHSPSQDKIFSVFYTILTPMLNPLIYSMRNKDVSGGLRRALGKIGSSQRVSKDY

Olfr693 = experiment: dual-luciferase (cAMP/CREB reporter) ligand screen, Olfr693 in HEK293T cells; format: cell-based, mouse; set-up: key: ‘+’ or ‘–‘ in each column indicates if the olfactory receptor responded or had no effect to that specific chemical; -: ‘+’ or ‘–‘ in each column indicates if the olfactory receptor responded or had no effect to that specific chemical; conditions: chemicals tested individually, screened at 500uM (* also at 100uM)

Row | Compound | Olfr545 response in dual-luciferase assay (Olfr545) | Olfr691 response in dual-luciferase assay (Olfr691) | Olfr99 response in dual-luciferase assay (Olfr99) | Olfr31 response in dual-luciferase assay (Olfr31) | Olfr693 response in dual-luciferase assay (Olfr693) | Relative response (% of 4-pentenoate response) at 500 µM (Olfr691) [%] | EC50 (Olfr691; Olfr691 co-expressed with RTP1S in HEK293T cells, 10 µM to 7.5 mM) [µM] | Olfr691 response (in words) (Olfr691; luciferase assay, co-expressed with RTP1S, listed as 4-Pentenoate) | Olfr691 response (in words) (Olfr691; luciferase assay, co-expressed with RTP1S, listed as 4-pentenoate) | Olfr691 response (in words) (Olfr691)
1 | C=CC(C)(O)CCC=C(C)CCC=C(C)C (mixture of isomers) [nerolidol] | - | - | - | - | - |  |  |  |  | 
2 | C=C(C)C1CC=C(C)CC1 (single isomer, unassigned; (+)) [(+)-Limonene] | - | - | - | - | - |  |  |  |  | 
3 | Fc1ccc(F)c(F)c1 [1,2,4 trifluorobenzene] | - | - | - | - | - |  |  |  |  | 
4 | SCCS [1,2-ethanedithiol] | - | - | - | - | - |  |  |  |  | 
5 | COc1cccc(OC)c1 [1,3-Dimethoxybenzene] | - | - | - | - | - |  |  |  |  | 
6 | SCCCCS [1,4-butanedithiol] | - | - | - | - | - |  |  |  |  | 
7 | O=C1CCC(=O)CC1 [1,4-cyclohexanedione] | - | - | - | - | - |  |  |  |  | 
8 | SCCCCCCS [1,6-hexanedithiol] | - | - | - | - | - |  |  |  |  | 
9 | CCCCCCCO [1-Heptanol] | - | - | - | - | - |  |  |  |  | 
10 | C=CC(=O)CCCCC [1-Octen-3-one] | - | - | - | - | - |  |  |  |  | 
11 | CCC(C)S (centres unmarked) [1-methyl-1-propanethiol] | - | - | - | - | - |  |  |  |  | 
12 | CCCCCCCCO [1-octanol] | - | - | - | - | - |  |  |  |  | 
13 | CC(O)C(C)O (centres unmarked) [2,3-butanediol] | - | - | - | - | - |  |  |  |  | 
14 | CCCC(=O)C(C)=O [2,3-hexadione] | - | - | - | - | - |  |  |  |  | 
15 | Cc1ccc(C)s1 [2,5-Dimethylthiophene] | - | - | - | - | - |  |  |  |  | 
16 | Cc1cncc(C)n1 [2,6-Dimethylpyrazine] | - | - | - | - | - |  |  |  |  | 

Row | Compound | Olfr545 response in dual-luciferase assay (Olfr545) | Olfr691 response in dual-luciferase assay (Olfr691) | Olfr99 response in dual-luciferase assay (Olfr99) | Olfr31 response in dual-luciferase assay (Olfr31) | Olfr693 response in dual-luciferase assay (Olfr693) | Relative response (% of 4-pentenoate response) at 500 µM (Olfr691) [%] | EC50 (Olfr691; Olfr691 co-expressed with RTP1S in HEK293T cells, 10 µM to 7.5 mM) [µM] | Olfr691 response (in words) (Olfr691; luciferase assay, co-expressed with RTP1S, listed as 4-Pentenoate) | Olfr691 response (in words) (Olfr691; luciferase assay, co-expressed with RTP1S, listed as 4-pentenoate) | Olfr691 response (in words) (Olfr691)
17 | CCCCCC(C)O (centres unmarked) [2-Heptanol] | - | - | - | - | - |  |  |  |  | 
18 | CCCC1CCOC(C)S1 (centres unmarked) [2-Methyl-4-propyl-1,3-oxathiane] | - | - | - | - | - |  |  |  |  | 
19 | O=C1Cc2ccccc2O1 [2-cumaranon] | - | - | - | - | - |  |  |  |  | 
20 | CCCCC(CC)C(=O)O (centres unmarked) [2-ethylhexanoate] | - | + | - | - | - | 76 ± 3.6 |  |  |  | 
21 | CCCCCC(C)=O [2-heptanone] | - | - | - | - | - |  |  |  |  | 
22 | Cc1ccco1 [2-methylfuran] | - | - | - | - | - |  |  |  |  | 
23 | CC(C)CCO [3-methyl-1-butanol] | - | - | - | - | - |  |  |  |  | 
24 | CCCCCC(=O)CC [3-octanone] | - | - | - | - | - |  |  |  |  | 
25 | C=CCCC(=O)O [4-pentenoic acid] | - | + | - | - | - | 100 ± 10.6 | 901 | induced the strongest response | induced the strongest cAMP responses at all doses | 
26 | CC(C)(C)C1CCC(O)CC1 (centres unmarked) [4-tert-butylcyclohexanol] | - | - | - | - | - |  |  |  |  | 
27 | O=C1CCCCCCCCCCCCCCCO1 [16-hexadecanolide] | - | - | - | - | - |  |  |  |  | 
28 | C=C(C)[C@@H]1CC[C@@H](C)C(=O)C1 [(+)Dihydrocarvone] | - | - | - | - | - |  |  |  |  | 
29 | C=C[C@H](O)CCCCC [(R)-1-Octen-3-ol] | - | - | - | - | - |  |  |  |  | 
30 | C[C@]12CC[C@@H]3c4ccc(O)cc4CC[C@H]3[C@@H]1CC[C@@H]2O [estradiol, reference compound] | - | - | - |  | - |  |  |  |  | 
31 | O=CO [formate] |  |  |  |  |  |  |  |  |  | not including
32 | CC(C)CC(=O)O [isovaleric acid] | - |  | - |  | - |  |  |  |  | 
